Legend:
human orexin 2 receptor = human orexin 2 receptor (Homo sapiens (Human), UniProt O43614); assay: Human orexin 2 receptor radioligand binding ([3H]-EMPA); conditions: averages of 2-20 runs, read-out: hOX2 Ki
Summary of the method: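 Competition binding using homogenized HEK293 cells stably expressing human orexin 2 receptor, [3H]-EMPA at 2 nM final and ≤0.1% DMSO; nonspecific binding set with 10 μM almorexant. Filter-bound radioactivity counted by scintillation; one-site competition IC50 converted to Ki using pre-determined Kd, compounds run in triplicate.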

human orexin 1 receptor = human orexin 1 receptor (Homo sapiens, UniProt O43613); assay: Human orexin 1 receptor radioligand binding; conditions: human orexin 1 receptor radioligand binding; averages of 2-20 runs; read-out: hOX1 Ki
Description: The in vitro affinity of the compounds of the invention for the rat/human orexin 1 and human orexin 2 receptors was determined by competitive radioligand binding using [^3H](1-(5-(2-fluoro-phenyl)-2-methyl-thiazol-4-yl)-1-((S)-2-(5-phenyl-(1,3,4)oxadiazol-2-ylmethyl)-pyrrolidin-1-yl)-methanone) (Langmead et al., 2004) and [^3H]EMPA (n-ethyl-2[96-methoxypyridin-3-yl)-(toluene-2-sulfonyl)-amino]-N-pyridin-3-ylmethyl acetamide), respectively (Langmead et al., 2004, British Journal of Pharmacology 141:340-346; Malherbe et al., 2004, British Journal of Pharmacology 156:1326-41).
(§1) Data are analyzed using pc-Sandy macro and graphed on Graphpad Prism 5. For analysis, each concentration point is averaged from triplicate values and the averaged values are plotted on Graphpad Prism. The IC50 was determined by applying the following equation (GraphPad Prism 5.0, SanDiego) for one site competition where X=log (concentration) and Y=specific binding. Top denotes the total [^3H]-(1-(5-(2-fluoro-phenyl)-2-methyl-thiazol-4-yl)-1-((S)-2-(5-phenyl-(1,3,4)oxadiazol-2-ylmethyl)-pyrrolidin-1-yl)-methanone) binding, bottom denotes the nonspecific [^3H]-(1-(5-(2-fluoro-phenyl)-2-methyl-thiazol-4-yl)-1-((S)-2-(5-phenyl-(1,3,4)oxadiazol-2-ylmethyl)-pyrrolidin-1-yl)-methanone) binding. Graphpad Prism calculates Ki value from IC50 and the pre-determined Kd values for [^3H]-(1-(5-(2-fluoro-phenyl)-2-methyl-thiazol-4-yl)-1-((S)-2-(5-phenyl-(1,3,4)oxadiazol-2-ylmethyl)-pyrrolidin-1-yl)-methanone) and [3H]-EMPA. The Ki for each compound is then uploaded into 3DX. Each run comprises individual compounds in triplicate.
(§2) Rat and Human Orexin 1 Receptor Radioligand Binding Studies
Human Embryonic Kidney 293 cells (HEK293) stably expressing rat orexin 1 receptor (Genebank accession number NM_001525) or Chinese ovary cells (CHO) stably expressing human orexin 1 receptor (Genebank accession number NM_001526) were grown to confluency in DMEM (Hyclone, cat #SH30022), 10% FBS, 1×Pen/Strep, 1× sodium pyruvate, 10 mM HEPES, 600 μg/mL G418 and DMEM/F12 (Gibco, Cat #11039), 10% FBS, 1×Pen/Strep, 600 μg/mL G418 media, respectively on 150 cm^2 tissue culture plates, washed with 5 mM EDTA in PBS (HyClone Dulbecco's Phosphate Buffered Saline 1× with Calcium and Magnesium, Cat #SH30264.01, hereafter referred to simply as PBS) and scraped into 50 ml tubes. After centrifugation (2K×G, 5 min at 4° C.), the supernatant was aspirated and the pellets frozen and stored at −80° C. Cells were resuspended in PBS in the presence of 1 tablet of protease inhibitor cocktail (Roche, Cat. #11836145001) per 50 mL. Each cell pellet from a 15 cm plate was resuspended in 10 mL, stored on ice, and homogenized for 45 sec prior to addition to the reactions. Competition binding experiments in 96 well polypropylene plates were performed using [^3H]-(1-(5-(2-fluoro-phenyl)-2-methyl-thiazol-4-yl)-1-((S)-2-(5-phenyl-(1,3,4)oxadiazol-2-ylmethyl)-pyrrolidin-1-yl)-methanone) (Moraveck Corporation, specific activity=35.3 Ci/mmol), diluted to a 10 nM concentration in PBS (4 nM final). […] The final concentration of DMSO in the reactions is equal to or less than 0.1%. Total and nonspecific binding was determined in the absence and presence of 10 μM almorexant. The total volume of each reaction is 200 μL (20 μL of diluted compounds, 80 μL of [^3H]-(1-(5-(2-fluoro-phenyl)-2-methyl-thiazol-4-yl)-1-((S)-2-(5-phenyl-(1,3,4)oxadiazol-2-ylmethyl)-pyrrolidin-1-yl)-methanone) diluted in PBS and 100 μL of the cell suspension). Reactions were run for 60 min at room temperature and terminated by filtration through GF/C filter plates (PerkinElmer, Cat. #6005174) presoaked in 0.3% polyethylenimine using the cell harvester (PerkinElmer Filtermate). The plates were washed 3 times by aspirating 30 ml PBS through the plates. Plates were dried in 55° C. oven for 60 min, scintillation fluid was added, and the radioactivity was counted on a Topcount (Packard).

rat orexin 1 receptor = rat orexin 1 receptor (Rattus norvegicus, UniProt P56718); assay: Rat orexin 1 receptor radioligand binding; conditions: rat orexin 1 receptor radioligand binding; averages of 2-20 runs; read-out: rOX1 Ki
Description: as §1, §2
After centrifugation (2K×G, 5 min at 4° C.), the supernatant was aspirated and the pellets frozen and stored at −80° C. […] Each cell pellet from a 15 cm plate was resuspended in 10 mL, stored on ice, and homogenized for 45 sec prior to addition to the reactions. Competition binding experiments in 96 well polypropylene plates were performed using [^3H]-(1-(5-(2-fluoro-phenyl)-2-methyl-thiazol-4-yl)-1-((S)-2-(5-phenyl-(1,3,4)oxadiazol-2-ylmethyl)-pyrrolidin-1-yl)-methanone) (Moraveck Corporation, specific activity=35.3 Ci/mmol), diluted to a 10 nM concentration in PBS (4 nM final). […] The final concentration of DMSO in the reactions is equal to or less than 0.1%. Total and nonspecific binding was determined in the absence and presence of 10 μM almorexant. The total volume of each reaction is 200 μL (20 μL of diluted compounds, 80 μL of [^3H]-(1-(5-(2-fluoro-phenyl)-2-methyl-thiazol-4-yl)-1-((S)-2-(5-phenyl-(1,3,4)oxadiazol-2-ylmethyl)-pyrrolidin-1-yl)-methanone) diluted in PBS and 100 μL of the cell suspension). […] The plates were washed 3 times by aspirating 30 ml PBS through the plates. Plates were dried in 55° C. oven for 60 min, scintillation fluid was added, and the radioactivity was counted on a Topcount (Packard).

human orexin 2 receptor, sequence (O43614 whole entry): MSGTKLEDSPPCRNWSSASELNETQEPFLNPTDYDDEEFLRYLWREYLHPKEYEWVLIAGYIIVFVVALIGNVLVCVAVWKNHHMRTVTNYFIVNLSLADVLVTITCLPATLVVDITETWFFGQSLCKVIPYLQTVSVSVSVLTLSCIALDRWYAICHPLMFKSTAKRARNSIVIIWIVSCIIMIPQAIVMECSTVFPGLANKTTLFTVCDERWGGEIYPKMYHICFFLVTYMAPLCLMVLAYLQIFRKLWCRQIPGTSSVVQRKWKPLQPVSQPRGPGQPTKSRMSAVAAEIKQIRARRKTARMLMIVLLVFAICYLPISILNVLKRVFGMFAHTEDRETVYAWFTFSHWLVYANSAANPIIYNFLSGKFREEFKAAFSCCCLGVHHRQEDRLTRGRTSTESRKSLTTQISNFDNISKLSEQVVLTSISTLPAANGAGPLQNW

SMILES	Ki (human orexin 2 receptor) [nM]	Ki (human orexin 1 receptor) [nM]	Ki (rat orexin 1 receptor) [nM]
Cc1cnc(C(=O)N2CCC[C@@H](Nc3ccc(C(F)(F)F)cn3)[C@@H]2C)c(-n2nccn2)c1 [Example 26, ((2S,3R)-2-methyl-3-((5-(trifluoromethyl)pyridin-2-yl)amino)piperidin-1-yl)(5-methyl-3-(2H-1,2,3-triazol-2-yl)pyridin-2-yl)methanone]	2370	16	12
Cc1cnc(C(=O)N2CCC[C@@H](Nc3ccc(Cl)cn3)[C@@H]2C)c(-c2ncco2)c1 [Example 77, ((2S,3R)-3-((5-chloropyridin-2-yl)amino)-2-methylpiperidin-1-yl)(5-methyl-3-(oxazol-2-yl)pyridin-2-yl)methanone]	4230	60	41
COc1ccc(-n2nccn2)c(C(=O)N2CCC[C@@H](Nc3ncc(C(F)(F)F)cn3)[C@@H]2C)c1 [Example 89, (5-methoxy-2-(2H-1,2,3-triazol-2-yl)phenyl)((2S,3R)-2-methyl-3-((5-(trifluoromethyl)pyrimidin-2-yl)amino)piperidin-1-yl)methanone]	422	9	11
COc1ccc(C(=O)N2CCC[C@@H](Nc3ccc(C(F)(F)F)cn3)[C@@H]2C)c(-n2nccn2)c1 [Example 97, (4-methoxy-2-(2H-1,2,3-triazol-2-yl)phenyl)((2S,3R)-2-methyl-3-((5-(trifluoromethyl)pyridin-2-yl)amino)piperidin-1-yl)methanone]	4900	34	33
Cc1cnc(C(=O)N2CCC[C@@H](Oc3cnc(C(F)(F)F)cn3)[C@@H]2C)c(-n2nccn2)c1 [Example 105, ((2S,3R)-2-methyl-3-((5-(trifluoromethyl)pyrazin-2-yl)oxy)piperidin-1-yl)(5-methyl-3-(2H-1,2,3-triazol-2-yl)pyridin-2-yl)methanone]	> 10000	269	192
C[C@H]1[C@H](Oc2cnc(C(F)(F)F)cn2)CCCN1C(=O)c1ccccc1-n1nccn1 [Example 106, (2-(2H-1,2,3-triazol-2-yl)phenyl)((2S,3R)-2-methyl-3-((5-(trifluoromethyl)pyrazin-2-yl)oxy)piperidin-1-yl)methanone]	912	45	44
Cc1ccc(-n2nccn2)c(C(=O)N2CCC[C@@H](Oc3cnc(C(F)(F)F)cn3)[C@@H]2C)n1 [Example 107, ((2S,3R)-2-methyl-3-((5-(trifluoromethyl)pyrazin-2-yl)oxy)piperidin-1-yl)(6-methyl-3-(2H-1,2,3-triazol-2-yl)pyridin-2-yl)methanone]	2300	38	34
C[C@H]1[C@H](Oc2ccc(C(F)(F)F)cn2)CCCN1C(=O)c1ccccc1-n1nccn1 [Example 110, (2-(2H-1,2,3-triazol-2-yl)phenyl)((2S,3R)-2-methyl-3-((5-(trifluoromethyl)pyridin-2-yl)oxy)piperidin-1-yl)methanone]	246	11	12
Cc1cnc(C(=O)N2CCC[C@@H](Oc3ccc(C(F)(F)F)cn3)[C@@H]2C)c(-n2nccn2)c1 [Example 111, ((2S,3R)-2-methyl-3-((5-(trifluoromethyl)pyridin-2-yl)oxy)piperidin-1-yl)(5-methyl-3-(2H-1,2,3-triazol-2-yl)pyridin-2-yl)methanone]	5100	31	22

Now from value to compound:

Ki (human orexin 2 receptor) [nM]	Ki (human orexin 1 receptor) [nM]	Ki (rat orexin 1 receptor) [nM]	SMILES
2400	206	154	CCOc1ccc(C)nc1C(=O)N1CCC[C@@H](Nc2ncc(C(F)(F)F)cn2)[C@@H]1C (relative stereo) [Example 199, (3-ethoxy-6-methylpyridin-2-yl)((2S*,3R*)-2-methyl-3-((5-(trifluoromethyl)pyrimidin-2-yl)amino)piperidin-1-yl)methanone]
292	16	14	C[C@H]1[C@H](Nc2nc3ccccc3o2)CCCN1C(=O)c1cccc(F)c1-c1ncccn1 (relative stereo) [Example 204, ((2S*,3R*)-3-(benzo[d]oxazol-2-ylamino)-2-methylpiperidin-1-yl)(3-fluoro-2-(pyrimidin-2-yl)phenyl)methanone]
564	16	16	C[C@H]1[C@H](Nc2nc3ccccc3o2)CCCN1C(=O)c1ccc(F)cc1-c1ncccn1 (relative stereo) [Example 206, ((2S*,3R*)-3-(benzo[d]oxazol-2-ylamino)-2-methylpiperidin-1-yl)(4-fluoro-2-(pyrimidin-2-yl)phenyl)methanone]
1100	34	67	C[C@H]1[C@H](Nc2cnc(C(F)(F)F)cn2)CCCN1C(=O)c1ccc(F)cc1-c1ncco1 (relative stereo) [Example 208, (4-fluoro-2-(oxazol-2-yl)phenyl)((2S*,3R*)-2-methyl-3-((5-(trifluoromethyl)pyrazin-2-yl)amino)piperidin-1-yl)methanone]
944	25	16	C[C@H]1[C@H](Nc2cnc(C(F)(F)F)cn2)CCCN1C(=O)c1ccc(F)cc1-c1ncccn1 (relative stereo) [Example 209, (4-fluoro-2-(pyrimidin-2-yl)phenyl)((2S*,3R*)-2-methyl-3-((5-(trifluoromethyl)pyrazin-2-yl)amino)piperidin-1-yl)methanone]
293	24	16	C[C@H]1[C@H](Nc2ccc(C(F)(F)F)cn2)CCCN1C(=O)c1ncccc1-c1ncccn1 (relative stereo) [Example 265, ((2S*,3R*)-2-methyl-3-((5-(trifluoromethyl)pyridin-2-yl)amino)piperidin-1-yl)(3-(pyrimidin-2-yl)pyridin-2-yl)methanone]
